From patent EP4692094A1 (Beijing Konruns Pharmaceutical Co., Ltd., priority 2023, dated 2024)
Read-outs that look alike come from different tables or passages of the source.

Assays:
[1] = Assay for plasma protein binding rate (equilibrium dialysis), human plasma; type: in vitro ADME; settings: dialysis 6 h at 37 °C, read-out: Human (Fu%)
Protocol: 1.1 Preparation of compounds: The compounds prepared in the examples were each dissolved in dimethylsulfoxide to give solutions at a concentration of 10 mmol/L. • 1) The example compounds were each diluted from 10 mmol/L stock solution to 0.2 mmol/L, i.e., 1 µL of the compound was added to 49 µL of DMSO; • 2) 3 µL of 0.2 mmol/L test compounds were added to 597 µL of blood plasma, and the mixtures were vortexed at 1000 rpm for 2 min; • 3) 50 µL of the plasma containing the drug in 2) was taken, 50 µL of PBS was added, and 300 µL of methanol internal standard* was added to serve as a sample T0; • 4) 120 µL of the plasma containing the drug in 2) was taken and added to one side of an HTD device membrane, and 120 µL of PBS was added to the other side of the membrane; a breathable film was covered, and the plasma and the residual sample in 2) were balanced at 37 °C (100 rpm and 5% CO2) for 6 h; • 5) 50 µL of the dialyzed plasma side sample was taken, 50 µL of PBS was added, and 300 µL of methanol internal standard* was added to serve as a sample P; • 6) 50 µL of the dialyzed PBS side sample was taken, 50 µL of blank plasma was added, and 300 µL of methanol internal standard* was added to serve as a sample B; • 7) 50 µL of the plasma containing the drug in 2) was taken, 50 µL of PBS was added, and 300 µL of methanol internal standard* was added to serve as a sample T6; • 8) All samples were vortexed, mixed homogeneously, and then centrifuged at 3220 g for 40 min at 4 °C; • 9) 100 µL of the supernatant and 100 µL of purified water were mixed homogenously for liquid chromatography-mass spectrometry.
An internal standard method was used, and the plasma protein binding rate, recovery rate, and residual percentage were calculated by using Excel according to the ratio of the peak area of the sample to the peak area of the internal standard. Free rate(%) = (RatioB)/(RatioP) × 100% [formula] Binding rate(%) = 100%−Free rate% [formula] Recovery rate(%) = (RatioB + RatioP)/(RatioT0) × 100% [formula] Remaining percentage(%) = (RatioT6)/(RatioT0) × 100% [formula]
RatioB: a ratio of the peak area of the test substance on the PBS side to the peak area of the internal standard; RatioP: a ratio of the peak area of the test substance on the plasma side to the peak area of the internal standard; RatioT6: a ratio of the peak area of the sample after incubation with the test substance for 6 h to the peak area of the internal standard; RatioT0: a ratio of the peak area of the sample after incubation with the test substance for 0 h to the peak area of the internal standard. Table 8. Plasma protein binding rate (Fu%) data for various species of example compounds

[2] = In-vivo pharmacokinetic study in beagle dogs; parameters: species or system male beagle dogs; settings: dog, plasma, po, intragastric administration
Protocol: 1.1 Instrument: high-performance liquid chromatograph: SHIMADZU LC-30AD; mass spectrum: AB SCIEX mass spectrometer Triple Quad 5500; all measured data were calculated and processed using Microsoft Excel, and relevant pharmacokinetic parameters were calculated using WinNonlin software. […] Chromatographic column: Agilent EC-C18 2.7 µm (50 × 2.1 mm); column temperature: 40 °C; mobile phase A: water (0.1% formic acid); mobile phase B: acetonitrile; flow rate: 0.60 mL/min; gradient elution; elution gradient: 0.30 min: 5% B; 1.90 min: 95% B; 2.20 min: 95% B; 2.21 min: 5% B; 2.50 min: stop. Sample injection amount: 10 µL.
1.2 Animals: 3 male beagle dogs were used. The body weight range was 8-15 kg. The beagle dogs were fasted 12 h before administration and 4 h after administration, and given ad libitum access to water during the assay.
1.3 Vehicle: 0.5% HPMC (hydroxypropyl methylcellulose) + 0.4% Tween80 + 99.1% water.
After the intragastric administration, blood samples were taken at 0.25 h, 0.5 h, 1 h, 2 h, 4 h, 6 h, 8 h, 10 h, 12 h, 24 h, and 48 h. The blood collection mode is as follows: venipuncture was used, EDTA-K2 was used as an anticoagulation agent, the collected blood sample was transferred into a microcentrifuge tube containing the anticoagulation agent, and the tube was centrifuged at 4 °C and 2000 g for 10 min to separate the plasma. All plasma samples collected were stored at -75±15 °C until analysis.
1.4 Plasma sample pretreatment: 50 µL of the plasma sample was taken, and 200 µL of an internal standard solution prepared with acetonitrile was added for precipitation; subsequently, the sample was vortexed for 1 min and mixed homogenously; the precipitated sample was centrifuged at 4 °C and 3900 rpm for 15 min; the supernatant was pipetted, and water was added for 3-fold dilution; 10 µL of the sample was injected; and quantitative analysis was performed by adopting a liquid chromatography-mass spectrometry technology.
All measured data were collected and processed by the relevant software, and pharmacokinetic parameters were calculated using Winnonlin software. Pharmacokinetic parameters of some compounds in the examples in beagle dogs

[3] = male, 1 mg/kg, read-out: AUC0-48h

Structure (SMILES)	fraction unbound at 6 h, 1 µM [1]	AUC(0-inf) ([2]; 1 mg/kg) [ng·h/mL]	Cmax ([2]; 1 mg/kg) [ng/mL]	Tmax ([2]; 1 mg/kg) [h]	half-life ([2]; 1 mg/kg) [h]	AUC(0-t) at 48 h ([2]; 1 mg/kg, read-out: AUC0-48h) [ng·h/mL]	half-life ([2]; male, beagle, 1 mg/kg) [h]	AUC(0-inf) ([2]; male, 1 mg/kg) [ng·h/mL]	Cmax ([2]; male, 1 mg/kg) [ng/mL]	Tmax ([2]; male, 1 mg/kg) [h]	AUC(0-t) [2, 3] [ng·h/mL]	half-life ([2]; male, beagle, 0.6 mg/kg) [h]	AUC(0-inf) ([2]; male, 0.6 mg/kg) [ng·h/mL]	Cmax ([2]; male, 0.6 mg/kg) [ng/mL]	Tmax ([2]; male, 0.6 mg/kg) [h]	AUC(0-t) ([2]; male, 0.6 mg/kg, read-out: AUC0-48h) [ng·h/mL]
COc1cc2c(cc1S(=O)(=O)Nc1noc3cc(Cn4cccn4)nc(OC)c13)CCCO2 [Example 76, N-(6-((1H-Pyrazol-1-yl)methyl)-4-methoxyisoxazolo[4,5-c]pyridin-3-yl)-7-methoxy-3,4-dihydro-1H-benzopyran-6-sulfonamide]	0.0118	749000	14000	2	45.4	225000										
COc1ccc2c(c1S(=O)(=O)Nc1noc3cc(Cn4cccn4)nc(OC)c13)OCC2 [Example 9, N-(6-((1H-Pyrazol-1-yl)methyl)-4-methoxyisoxazolo[4,5-c]pyridin-3-yl)-6-methoxy-2,3-dihydrobenzofuran-7-sulfonamide]	0.0069						≤ 15	122000	9230	1.33	114000					
COc1cc2c(cc1S(=O)(=O)Nc1noc3cc(Cn4cccn4)nc(OC)c13)OCC2 [Example 59, N-(6-((1H-Pyrazol-1-yl)methyl)-4-methoxyisoxazolo[4,5-c]pyridin-3-yl)-5-methoxy-2,3-dihydrobenzofuran-6-sulfonamide]	0.0248						≤ 15	55900	8380	0.67	55500					
COc1ccc2ccoc2c1S(=O)(=O)Nc1noc2cc(Cn3cccn3)nc(OC)c12 [Example 10, N-(6-((1H-Pyrazol-1-yl)methyl)-4-methoxyisoxazolo[4,5-c]pyridin-3-yl)-6-methoxybenzofuran-7-sulfonamide]	0.0073						≤ 15	47500	6250	0.83	46700					
COc1cc2c(cc1S(=O)(=O)Nc1noc3cc(Cn4cccn4)nc(OC)c13)CCCC2 [Example 2, N-(6-((1H-Pyrazol-1-yl)methyl)-4-methoxyisoxazolo[4,5-c]pyridin-3-yl)-3-methoxy-5,6,7,8-tetrahydronaphthalene-2-sulfonamide]	0.0099											173	379000	1800	4	66500
